This is an account of results in ChEMBL document CHEMBL3352194, “The discovery of benzenesulfonamide-based potent and selective inhibitors of voltage-gated sodium channel Na(v)1.7” (Bioorg Med Chem Lett, 2014).

In series [1] the target is Sodium channel protein type 9 subunit alpha (Homo sapiens, UniProt Q15858). Nature of the series: Inhibition of human Nav1.7 expressed in HEK cells assessed as reduction in sodium current at -60 mV holding potential by PatchXpress platform based whole cell patch clamp electrophysiological assay. More on the design: species or system HEK293. In general terms: Patch clamp records ionic current or voltage across a cell membrane.

Series [2] addresses T1, Cytochrome P450 3A4 (Homo sapiens, UniProt P08684). Nature of the series: (§1) Inhibition of CYP3A4 (unknown origin) using midazolam substrate at 10 uM. Format: ADME. Conditions: 10 µM.
In series [3] the target is T2, Cytochrome P450 2D6 (Homo sapiens, UniProt P10635). In words: (§2) Inhibition of CYP2D6 (unknown origin) using bufuralol substrate at 10 uM. Format: ADME. Conditions: 10 µM.
T2 sequence (P10635 whole entry): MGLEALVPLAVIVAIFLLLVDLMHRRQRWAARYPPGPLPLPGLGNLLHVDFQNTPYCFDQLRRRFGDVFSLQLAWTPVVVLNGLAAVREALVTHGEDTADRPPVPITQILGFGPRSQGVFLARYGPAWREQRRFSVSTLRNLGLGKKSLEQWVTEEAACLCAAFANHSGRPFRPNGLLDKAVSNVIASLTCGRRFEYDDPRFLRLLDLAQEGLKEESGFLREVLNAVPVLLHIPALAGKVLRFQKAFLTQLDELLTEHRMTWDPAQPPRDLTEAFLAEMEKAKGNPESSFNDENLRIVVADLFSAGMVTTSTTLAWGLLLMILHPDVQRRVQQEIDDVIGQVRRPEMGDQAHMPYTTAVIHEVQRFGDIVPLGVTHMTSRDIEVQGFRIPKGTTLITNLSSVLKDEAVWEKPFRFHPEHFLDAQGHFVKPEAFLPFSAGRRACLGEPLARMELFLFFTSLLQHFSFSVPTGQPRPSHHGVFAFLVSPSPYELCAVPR
Series [4] has as its target T3, Cytochrome P450 2C19 (Homo sapiens, UniProt P33261). Nature of the series: (§3) Inhibition of CYP2C19 (unknown origin) using omeprazole substrate at 10 uM. It is filed as ADME. To be noted: 10 µM.
For series [5], the target named is T1, Cytochrome P450 3A4. Nature of the series: Inhibition of CYP3A4 (unknown origin) using midazolam substrate. Format: ADME.
In series [6] the target is T2, Cytochrome P450 2D6. Nature of the series: Inhibition of CYP2D6 (unknown origin) using bufuralol substrate. It is filed as ADME.
Series [7] has as its target T4, Cytochrome P450 2C9 (Homo sapiens, UniProt P11712). Nature of the series: Inhibition of CYP2C9 (unknown origin) using diclofenac substrate. Format: ADME.
The target of series [8] is T3, Cytochrome P450 2C19. In words: Inhibition of CYP2C19 (unknown origin) using omeprazole substrate. It is filed as ADME.
The target of series [9] is Sodium channel protein type 5 subunit alpha (Homo sapiens, UniProt Q14524). In words: Inhibition of human Nav1.5 expressed in HEK cells assessed as reduction in sodium current at -60 mV holding potential by PatchXpress platform based whole cell patch clamp electrophysiological assay. More on the design: species or system HEK293.
Sodium channel protein type 5 subunit alpha, sequence (Q14524 whole entry): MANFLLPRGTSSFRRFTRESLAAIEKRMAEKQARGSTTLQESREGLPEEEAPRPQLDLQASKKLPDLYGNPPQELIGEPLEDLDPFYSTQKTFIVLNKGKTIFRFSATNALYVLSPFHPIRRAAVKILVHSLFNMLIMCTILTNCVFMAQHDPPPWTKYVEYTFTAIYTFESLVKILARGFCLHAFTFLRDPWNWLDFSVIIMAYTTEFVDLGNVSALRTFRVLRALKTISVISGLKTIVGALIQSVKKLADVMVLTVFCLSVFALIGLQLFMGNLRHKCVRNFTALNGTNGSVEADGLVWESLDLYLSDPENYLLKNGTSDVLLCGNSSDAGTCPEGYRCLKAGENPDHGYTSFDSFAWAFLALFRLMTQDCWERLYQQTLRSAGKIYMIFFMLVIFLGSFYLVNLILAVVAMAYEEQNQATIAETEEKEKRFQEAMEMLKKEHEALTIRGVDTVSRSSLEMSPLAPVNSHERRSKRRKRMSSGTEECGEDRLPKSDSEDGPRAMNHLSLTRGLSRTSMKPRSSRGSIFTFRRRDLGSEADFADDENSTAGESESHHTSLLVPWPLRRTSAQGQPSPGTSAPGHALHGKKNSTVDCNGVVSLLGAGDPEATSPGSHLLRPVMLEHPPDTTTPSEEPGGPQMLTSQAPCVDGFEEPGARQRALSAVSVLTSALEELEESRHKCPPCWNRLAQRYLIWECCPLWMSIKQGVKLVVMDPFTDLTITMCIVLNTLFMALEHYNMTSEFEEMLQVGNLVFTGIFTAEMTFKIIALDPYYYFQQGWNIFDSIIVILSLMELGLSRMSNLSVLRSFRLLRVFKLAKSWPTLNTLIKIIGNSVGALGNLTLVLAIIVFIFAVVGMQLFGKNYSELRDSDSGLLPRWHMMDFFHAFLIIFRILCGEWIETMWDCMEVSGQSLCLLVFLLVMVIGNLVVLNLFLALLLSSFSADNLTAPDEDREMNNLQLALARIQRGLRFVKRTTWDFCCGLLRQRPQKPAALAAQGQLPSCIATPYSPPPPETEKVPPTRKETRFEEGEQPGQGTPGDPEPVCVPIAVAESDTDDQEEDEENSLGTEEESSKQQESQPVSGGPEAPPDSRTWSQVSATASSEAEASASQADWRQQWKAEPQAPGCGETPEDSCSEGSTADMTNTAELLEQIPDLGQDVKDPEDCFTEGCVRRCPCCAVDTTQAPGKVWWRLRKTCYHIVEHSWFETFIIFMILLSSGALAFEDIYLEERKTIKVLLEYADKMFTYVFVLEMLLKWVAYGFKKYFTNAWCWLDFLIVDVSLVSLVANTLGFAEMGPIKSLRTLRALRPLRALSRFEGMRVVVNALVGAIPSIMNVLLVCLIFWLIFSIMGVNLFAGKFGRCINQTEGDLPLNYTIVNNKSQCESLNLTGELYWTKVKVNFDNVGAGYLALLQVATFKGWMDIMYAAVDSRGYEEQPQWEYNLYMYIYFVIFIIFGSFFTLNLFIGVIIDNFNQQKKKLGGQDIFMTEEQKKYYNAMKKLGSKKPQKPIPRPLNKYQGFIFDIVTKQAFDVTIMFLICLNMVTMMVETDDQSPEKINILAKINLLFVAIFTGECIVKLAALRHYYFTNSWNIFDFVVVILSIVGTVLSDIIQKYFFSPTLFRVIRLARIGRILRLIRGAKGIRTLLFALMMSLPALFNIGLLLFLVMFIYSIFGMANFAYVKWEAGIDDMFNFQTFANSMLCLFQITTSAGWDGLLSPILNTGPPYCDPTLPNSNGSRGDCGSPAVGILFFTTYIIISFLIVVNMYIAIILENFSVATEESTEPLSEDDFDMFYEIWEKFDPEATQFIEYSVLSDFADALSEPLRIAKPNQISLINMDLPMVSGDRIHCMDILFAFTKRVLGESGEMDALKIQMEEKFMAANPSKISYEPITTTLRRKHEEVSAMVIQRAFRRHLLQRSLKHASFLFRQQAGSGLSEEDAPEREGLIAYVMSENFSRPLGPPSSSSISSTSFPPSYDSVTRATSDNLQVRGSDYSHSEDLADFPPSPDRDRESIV
Series [10] has as its target T4, Cytochrome P450 2C9. Nature of the series: (§4) Inhibition of CYP2C9 (unknown origin) using diclofenac substrate at 10 uM. Conditions: 10 µM. It is filed as ADME.
The next series addresses CYP3A4 (Homo sapiens, UniProt P08684). Described as §1. It is filed as ADME. To be noted: probe midazolam.
A further series addresses CYP2D6 (Homo sapiens, UniProt P10635). The description is as §2. Conditions: probe bufuralol. Format: ADME.
For the next series, the target named is CYP2C9 (Homo sapiens, UniProt P11712). The series is described as §4. It is filed as ADME. To be noted: probe diclofenac.
CYP2C9, sequence (P11712 whole entry): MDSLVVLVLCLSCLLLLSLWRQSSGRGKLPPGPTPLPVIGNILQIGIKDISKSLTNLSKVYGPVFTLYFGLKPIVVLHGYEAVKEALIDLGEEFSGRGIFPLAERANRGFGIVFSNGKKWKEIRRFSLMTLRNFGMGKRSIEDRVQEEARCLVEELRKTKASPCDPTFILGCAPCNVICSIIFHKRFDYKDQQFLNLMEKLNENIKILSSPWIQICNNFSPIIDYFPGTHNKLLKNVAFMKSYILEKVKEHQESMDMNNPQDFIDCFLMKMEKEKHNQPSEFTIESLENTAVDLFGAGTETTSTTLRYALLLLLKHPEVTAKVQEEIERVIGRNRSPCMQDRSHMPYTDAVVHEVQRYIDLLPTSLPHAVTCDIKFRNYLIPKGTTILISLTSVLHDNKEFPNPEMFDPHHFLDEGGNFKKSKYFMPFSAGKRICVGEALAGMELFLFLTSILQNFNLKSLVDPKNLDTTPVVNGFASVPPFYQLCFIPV
The target of another series is CYP2C19 (Homo sapiens, UniProt P33261). The series is described as §3. It is filed as ADME. Conditions: probe omeprazole.
CYP2C19, sequence (P33261 whole entry): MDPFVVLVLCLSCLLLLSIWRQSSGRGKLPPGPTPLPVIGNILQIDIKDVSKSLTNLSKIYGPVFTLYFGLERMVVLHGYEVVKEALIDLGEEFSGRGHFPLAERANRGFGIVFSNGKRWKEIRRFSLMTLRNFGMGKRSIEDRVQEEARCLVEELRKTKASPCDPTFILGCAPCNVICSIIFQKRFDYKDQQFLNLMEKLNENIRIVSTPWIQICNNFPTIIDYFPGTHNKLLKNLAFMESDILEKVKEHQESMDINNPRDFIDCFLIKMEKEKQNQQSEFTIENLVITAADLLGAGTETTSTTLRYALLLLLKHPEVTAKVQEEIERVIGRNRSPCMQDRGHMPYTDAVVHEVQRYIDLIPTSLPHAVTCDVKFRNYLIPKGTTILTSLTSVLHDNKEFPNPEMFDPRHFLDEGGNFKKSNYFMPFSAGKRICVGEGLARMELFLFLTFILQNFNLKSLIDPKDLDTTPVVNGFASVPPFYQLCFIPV
Another series is filed under the species Homo sapiens. Nature of the series: Selectivity index, ratio of IC50 for human Nav1.5 to IC50 for human Nav1.7.

CYP2D6, sequence (P10635 whole entry): as the sequence (P10635 whole entry) above
T3 sequence (P33261 whole entry): as the sequence (P33261 whole entry) above
CYP3A4, sequence (P08684 whole entry): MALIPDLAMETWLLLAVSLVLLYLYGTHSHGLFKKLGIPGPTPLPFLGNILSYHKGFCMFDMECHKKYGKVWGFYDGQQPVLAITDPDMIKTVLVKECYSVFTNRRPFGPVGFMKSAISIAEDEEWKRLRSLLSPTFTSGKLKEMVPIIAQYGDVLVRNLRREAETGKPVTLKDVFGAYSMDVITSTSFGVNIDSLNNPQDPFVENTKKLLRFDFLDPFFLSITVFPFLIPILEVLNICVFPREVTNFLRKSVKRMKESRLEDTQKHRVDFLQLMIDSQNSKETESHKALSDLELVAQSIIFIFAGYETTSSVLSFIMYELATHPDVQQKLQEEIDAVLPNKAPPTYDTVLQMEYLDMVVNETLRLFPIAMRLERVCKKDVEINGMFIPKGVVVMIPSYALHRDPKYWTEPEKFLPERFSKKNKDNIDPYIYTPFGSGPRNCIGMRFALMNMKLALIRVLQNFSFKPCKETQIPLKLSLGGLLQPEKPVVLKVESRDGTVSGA
T1 sequence (P08684 whole entry): as above
T4 sequence (P11712 whole entry): as the sequence (P11712 whole entry) above

As a reminder, the IC50 is the concentration that inhibits the measured activity by half. Turning to `O=S(=O)(Nc1ncns1)c1cc(F)c(OC[C@@H]2CNCC[C@H]2c2ccc(Cl)cc2)cc1F`, the IC50 in [1] was 59 nM. The entries for the “inhibition (INH)” value against Cytochrome P450 3A4 [2], at Cytochrome P450 2D6 [3] and on Cytochrome P450 2C19 [4] were 96%, 82% and 84%, respectively.

On to `O=S(=O)(Nc1ncns1)c1cc(F)c(OC[C@H]2CNCC[C@@H]2c2ccc(Cl)cc2)cc1F`, for which the 50% inhibitory concentration (IC50) is 150 nM at Cytochrome P450 3A4 [5], 260 nM at Cytochrome P450 2D6 [6], 630 nM against Cytochrome P450 2C9 [7] and over 10000 nM against Cytochrome P450 2C19 [8].

Regarding `CN1CC[C@@H](c2ccc(Cl)cc2)[C@H](COc2cc(F)c(S(=O)(=O)Nc3ncns3)cc2F)C1`, the IC50 in [9] (hek293) was over 10000 nM. Also, the “inhibition (INH)” value was found to be 96% on Cytochrome P450 3A4 [2], 69% against Cytochrome P450 2D6 [3], 93% against Cytochrome P450 2C9 [10] and 71% against Cytochrome P450 2C19 [4].

As to `CN1CC[C@H](c2ccc(Cl)cc2)[C@@H](COc2cc(F)c(S(=O)(=O)Nc3ncns3)cc2F)C1`, the IC50 in [1] was 4 nM; in series [9] it was over 10000 nM; at Cytochrome P450 3A4 [5] it was 140 nM; against Cytochrome P450 2D6 [6] it was 270 nM; at Cytochrome P450 2C9 [7], 880 nM; at Cytochrome P450 2C19 [8], over 10000 nM.

Usually inhibition stands for the share of the control response that was lost under treatment. A lower inhibition goes with little suppression. With `O=S(=O)(Nc1ncns1)c1cc(F)c(OC[C@@H]2CN(CCF)CC[C@H]2c2ccc(Cl)cc2)cc1F`, the IC50 in series [1] was 7 nM; in [9], over 10000 nM. Further, the inhibition at 10 µM on CYP3A4 is 98%; against CYP2D6 it was 90%; at CYP2C9, 97%; against CYP2C19 it was 96%.

On to `O=S(=O)(Nc1ncc(F)cn1)c1cc(F)c(OC[C@H]2CNCC[C@@H]2c2ccc(Cl)cc2)cc1F`, for which the IC50 (in [9]; on Cytochrome P450 3A4 [5]; against Cytochrome P450 2D6 [6]; on Cytochrome P450 2C9 [7]; on Cytochrome P450 2C19 [8]) was over 10000 nM each time.

As for `O=S(=O)(Nc1ncns1)c1cc(F)c(OC[C@@H]2CNCC[C@H]2c2ccccc2)cc1F` (relative stereo), the IC50 in series [1] is 7.9 nM; in [9] it was over 10000 nM. For the same molecule, the inhibition at 10 µM amounted to 95% at CYP3A4, 82% on CYP2D6, 81% at CYP2C9 and 81% against CYP2C19. Besides, in the series filed under Homo sapiens, the Ratio IC50 is over 1000.

For `O=S(=O)(Nc1ncns1)c1cc(F)c(OC[C@@H]2CNCC[C@H]2c2ccc(F)cc2)cc1F` (relative stereo), the IC50 in [1] was 6.8 nM; in series [9], over 10000 nM. The inhibition at 10 µM on CYP3A4 amounted to 96%; against CYP2D6, 92%; against CYP2C9 it was 100%; against CYP2C19, 97%.

As to `Cc1ccc([C@H]2CCNC[C@@H]2COc2cc(F)c(S(=O)(=O)Nc3ncns3)cc2F)cc1` (relative stereo), the IC50 in series [1] was 13 nM; in series [9], over 10000 nM. The inhibition at 10 µM on CYP3A4 was 95%; against CYP2D6 it was 81%; against CYP2C9, 100%; against CYP2C19, 59%.

Consider `O=C1C[C@@H](c2ccc(F)cc2)[C@H](COc2cc(F)c(S(=O)(=O)Nc3ncns3)cc2F)CN1` (relative stereo), for which the results for the IC50 in series [1] and in series [9] were 82 nM and over 10000 nM, respectively. Further, the inhibition at 10 µM on CYP3A4 is 95%; on CYP2D6, 6%; against CYP2C9, 58%; at CYP2C19 it was 64%.

As to `O=S(=O)(Nc1ncns1)c1cc(F)c(OC[C@@H]2CCNC[C@H]2c2ccc(F)cc2)cc1F` (relative stereo), the results for the IC50 in [1] and in series [9] were 32 nM and 5900 nM, respectively. Moreover, the inhibition at 10 µM at CYP3A4 came out at 89%; against CYP2D6 it was 61%; against CYP2C9 it was 97%; against CYP2C19, 69%.

In the case of `O=S(=O)(Nc1ncns1)c1cc(F)c(OC[C@@H]2CCCC[C@H]2c2ccc(Cl)cc2)cc1F` (relative stereo), the figures for the IC50 in [1] and in series [9] were 280 nM and 24700 nM, respectively. The inhibition at 10 µM against CYP3A4 was found to be 99%; on CYP2D6, 66%; against CYP2C9, 100%; against CYP2C19 it was 95%.

`CN1CC[C@@H](c2ccc(Cl)cc2)[C@H](COc2cc(F)c(S(=O)(=O)Nc3ncns3)cc2F)C1` (relative stereo): the IC50 was 11 nM in series [1] and over 10000 nM in series [9]. In addition, the results for the inhibition at 10 µM against CYP3A4, at CYP2C9 and at CYP2C19 were 97%, 97% and 86%, respectively. Besides, at Cytochrome P450 2D6 [3], the “inhibition (INH)” value came out at 93%.

`O=S(=O)(Nc1ncns1)c1cc(F)c(OC[C@@H]2CN(CC(F)(F)F)CC[C@H]2c2ccc(Cl)cc2)cc1F` (relative stereo): the IC50 in series [1] is 130 nM; in series [9], 2600 nM. The inhibition at 10 µM against CYP3A4 was 97%; on CYP2D6, 47%; on CYP2C9, 100%; at CYP2C19 it was 85%.

As for `O=S(=O)(Nc1nncs1)c1cc(F)c(OC[C@@H]2CNCC[C@H]2c2ccc(Cl)cc2)cc1F` (relative stereo), the half-maximal inhibitory concentration (IC50) in series [1] was 84 nM; in [9] it was over 10000 nM. Moreover, the inhibition at 10 µM at CYP3A4 is 30%; at CYP2D6, 54%; against CYP2C9, 99%; against CYP2C19 it was 35%.

As for `O=S(=O)(Nc1ccc(F)cn1)c1cc(F)c(OC[C@@H]2CNCC[C@H]2c2ccc(Cl)cc2)cc1F` (relative stereo), the values for the IC50 in [1] and in series [9] were 71 nM and over 10000 nM, respectively. Also, the inhibition at 10 µM on CYP3A4 worked out at 42%; against CYP2D6, 50%; against CYP2C9 it was 99%; against CYP2C19, 56%.

As for `O=S(=O)(Nc1ccncn1)c1cc(F)c(OC[C@@H]2CNCC[C@H]2c2ccc(Cl)cc2)cc1F` (relative stereo), the IC50 in series [9] was over 10000 nM. The inhibition at 10 µM against CYP3A4 came out at 57%; at CYP2D6 it was 94%; against CYP2C9 it was 91%; on CYP2C19 it was 72%.

As to `O=S(=O)(Nc1ncccn1)c1cc(F)c(OC[C@@H]2CNCC[C@H]2c2ccc(Cl)cc2)cc1F` (relative stereo), the IC50 was 53 nM in [1] and over 10000 nM in series [9]. In addition, the inhibition at 10 µM on CYP3A4 came out at 12%; against CYP2D6, 34%; at CYP2C9 it was 60%; against CYP2C19 it was 15%.

Regarding `O=S(=O)(Nc1ncc(F)cn1)c1cc(F)c(OC[C@@H]2CNCC[C@H]2c2ccc(Cl)cc2)cc1F` (relative stereo), the IC50 in series [9] was over 10000 nM. Further, the inhibition at 10 µM was found to be 25% against CYP3A4, 35% on CYP2D6, 73% against CYP2C9 and 26% against CYP2C19.
